Key:
L1210 cells = conditions: 72 h incubation, MTT
Description: L1210 cells were seeded at a density of 1×10^4 cells per well into 96 well ‘v’ bottomed microtiter plates (Costar) in RPMI 1640 tissue culture media (Gibeo) supplemented with 10% Foetal Calf Scrum (FCS) (Gibeo). All incubations were carried out at 37° C. in an atmosphere of 5% CO2.
The cells were then left for 24 h. Prior to being incubated with the polymers the cells were centrifuged at 1000×g for 10 minutes at room temperature. This served to pellet the cells and allow the removal of the media.
Doxorubicin and dextrin doxorubicin were then dissolved in RPMI 1640 containing 10% FCS and filter sterilised through 0.2μ filters (Aerodisk). Following this, the pellet was resuspended in media containing the appropriate concentration of drug or drug conjugate.
The tetrazolium dye MTT was used to assess cell viability. The cells were incubated for 67 h prior to the addition of the MTT. After a further incubation period of 5 h, the cells in suspension were subjected to centrifugation, the media removed and 100 μl of optical grade DMSO (Sigma) was added. The plates were read at 550 mn using a Titerteck plate reader. Results (OD) were expressed as a % of the OD seen in cell cultures containing no polymer.

rat red blood cells = experiment: Stability of rat red blood cells incubated in vitro (haemoglobin release, % lysis); type: cell-based; conditions: rat RBC 2% w/v suspension in PBS; relative to Triton X-100 = 100% lysis
Description: Dextrins of different molecular weight were incubated with isolated rat red blood cells (RBC) and haemoglobin release detected spectrophotometrically. Various dilutions of the test polymers (dextrins) and of the reference polymer polyethyleneimine were made up in PBS and mixed with an equal volume of fresh 2% w/v suspension of rat RBCs. This preparation was centrifuged at 1500×g for 10 min at room temperature. Then, 100 μl of the supernatant was removed and the levels of haemoglobin quantitated spectrophotometrically at […]. The results illustrated in FIG. 1 were expressed as % lysis relative to that of a Triton X-100 control (Sigma) which gave 100% RBC lysis.

Compound	toxicity to L1210 cells in vitro (L1210 cells)	red cell lysis (haemoglobin release) (rat red blood cells)
COc1cccc2c1C(=O)c1c(O)c3c(c(O)c1C2=O)C[C@@](O)(C(=O)CO)C[C@@H]3O[C@H]1C[C@H](N)[C@H](O)[C@H](C)O1 [doxorubicin]	toxic	
Triton X-100		caused haemoglobin release
